Patent US10196344B2, “Glaucocalyxin a derivative and preparation method and application thereof” (SUZHOU PHARMAVAN CANCER RESEARCH CENTER CO., LTD., priority 2015, dated 2019)
“Also recorded” adds a separate entry of the source. Where two headings read alike, the source gives them in different places.

Key:
[1] = tested on: A549 cell line of lung cancer; assay: Cell proliferation assay (MTT), A549; assay type: cell-based; settings: 1-100 μmol/L, 48 h, FIG. 7-8
Description: (§1) Cell Proliferation Assay (MTT): The experiment assaying the inhibition of dimethylamino glaucocalyxin A hydrochloride salt (hereinafter referred to as GH02) and glaucocalyxin A (i.e. GLA) on cell proliferation of cancer cell lines was performed as follows: cells of cancer cell lines were adjusted to a density of 10^4/100 μL and were seeded into 96-well plates at 100 μL per well and cultured overnight until the cells were completely adherent and grown up to 70-80% confluence. […] Subsequently, the supernatant was removed, 150 μL DMSO was added to each well and incubated with shaking for 10 min, and then the absorbance was measured at 490 nm on a microplate reader. Inhibitory rate of the cell proliferation=[(absorbance of the control group−absorbance of blank)−(absorbance of the medication group−absorbance of blank)]/(absorbance of the control group−absorbance of blank)% As shown in FIG. 4 to FIG. 6, MDA-MB-231 and MCF-7 are cell lines of breast cancer, SGC-7901 is a cell line of gastric cancer, U251 is a cell line of glioma, and A549 is a cell line of lung cancer.

[2] = background statement; cited from earlier work
[3] = background statement; cited from earlier work; remark: listed apart in the source
[4] = tested on: MDA-MB-231 breast cancer cell line; assay: Cell proliferation assay (MTT), MDA-MB-231; assay type: cell-based; settings: 48 h; for Inhibitory rate of the cell proliferation versus concentration: 1-100 μmol/L; for IC50 for the inhibition of proliferation, compared among five cell lines: MTT
Description: Cell Proliferation Assay (MTT): The experiment assaying the inhibition of dimethylamino glaucocalyxin A hydrochloride salt (hereinafter referred to as GH02) and glaucocalyxin A (i.e. GLA) on cell proliferation of cancer cell lines was performed as follows: cells of cancer cell lines were adjusted to a density of 10^4/100 μL and were seeded into 96-well plates at 100 μL per well and cultured overnight until the cells were completely adherent and grown up to 70-80% confluence. The mother liquid of GH02 and GLA (both of which concentrations were 100 mM) were diluted with complete medium, respectively, to final concentrations of 1, 3.125, 6.25, 12.5, 25, 50, 100 μmol/L, and then such diluted solutions were added into wells of 96-well plates, with each concentration being performed in 4 replicates, and the group without cells acting as blank control, and then incubated in the incubator at […]. After incubation for 48 h, MTT was added to each well to a final concentration of 0.5 mg/ml and further incubated in the incubator at […] for 4 h. Subsequently, the supernatant was removed, 150 μL DMSO was added to each well and incubated with shaking for 10 min, and then the absorbance was measured at 490 nm on a microplate reader. Inhibitory rate of the cell proliferation=[(absorbance of the control group−absorbance of blank)−(absorbance of the medication group−absorbance of blank)]/(absorbance of the control group−absorbance of blank)% As shown in FIG. 4 to FIG. 6, MDA-MB-231 and MCF-7 are cell lines of breast cancer, SGC-7901 is a cell line of gastric cancer, U251 is a cell line of glioma, and A549 is a cell line of lung cancer.

[5] = tested on: MCF-7 cell line of breast cancer; assay: Cell proliferation assay (MTT), MCF-7; assay type: cell-based; settings: 1-100 μmol/L, 48 h, FIG. 7-8
Description: as §1

U251 cell line of glioma = assay: Cell proliferation assay (MTT), U251; assay type: cell-based; settings: 1-100 μmol/L, 48 h, FIG. 7-8
Description: as §1

[6] = tested on: SGC-7901 cell line of gastric cancer; assay: Cell proliferation assay (MTT), SGC-7901; assay type: cell-based; settings: 1-100 μmol/L, 48 h, FIG. 7-8
Description: as §1

Water solubility = assay type: physicochemical; settings: found by the inventors by means of experiments
[7] = Oral bioavailability / in vivo pharmacokinetics; settings: when used as a drug; found by the inventors by means of experiments

Row | SMILES | Inhibitory rate of the cell proliferation versus concentration [1] | water solubility [2] | bioavailability in vivo [3] | half-life in vivo [3] | Inhibitory rate of the cell proliferation versus concentration ([4]; FIG. 7-8) | IC50 for the inhibition of proliferation, compared among five cell lines ([4]; FIG. 4-6) | Inhibitory rate of the cell proliferation versus concentration [5] | Inhibitory rate of the cell proliferation versus concentration (U251 cell line of glioma) | Inhibitory rate of the cell proliferation versus concentration [6] | water solubility (Water solubility) | Inhibitory rate of the cell proliferation versus concentration ([4]; FIG. 7-8, hydrochloride) | IC50 for the inhibition of proliferation, compared among five cell lines ([4]; FIG. 4-6, hydrochloride) | oral bioavailability [7]
1 | C=C1C(=O)C23C(O)C1CCC2[C@]1(C)CCC(=O)C(C)(C)[C@H]1C[C@H]3O (stereo partly drawn) [GLA, Kaur-16-ene-3,15-dione,(7α, 14R)—] | increased with the increase of the concentration of GLA | poor water solubility | low bioavailability | short half-life | increased with the increase of the concentration of GLA; also recorded: highest inhibitory rate | lowest IC50 values | increased with the increase of the concentration of GLA | increased with the increase of the concentration of GLA | increased with the increase of the concentration of GLA | – | – | – | –
2 | CN(C)CC1C(=O)C23C(O)C1CCC2[C@]1(C)CCC(=O)C(C)(C)[C@H]1C[C@H]3O.Cl (some centres unmarked) [GH02, dimethylamino glaucocalyxin A hydrochloride] | increased with the increase of the concentration of GH02 | – | – | – | – | – | increased with the increase of the concentration of GH02 | increased with the increase of the concentration of GH02 | increased with the increase of the concentration of GH02 | good water solubility | increased with the increase of the concentration of GH02; also recorded: highest inhibitory rate | lowest IC50 values | high oral bioavailability
